This note sets out measurements from ChEMBL document CHEMBL1147023, “(R)-sila-venlafaxine: a selective noradrenaline reuptake inhibitor for the treatment of emesis” (Bioorg Med Chem Lett, 2006).

Calls of active or inactive are those of the source. The rule behind the calls is not given here.

Data set [1] concerns Mustela putorius furo. Put plainly: Inhibition of morphine-induced emesis in ferret at 5 mg/kg. The data set is classed as functional.
For data set [2], the target named is Sodium-dependent noradrenaline transporter (Homo sapiens, UniProt P23975). The data set is described as follows: Inhibition of noradrenaline reuptake at human recombinant noradrenaline transporter.
Data set [3] concerns the target T1, Voltage-gated L-type calcium channel (Homo sapiens, UniProt Q13936+Q13698+Q01668+O60840). Put plainly: Inhibition of verapamil sensitive L type calcium channel by radioligand […] assay. The format is protein assay.
Data set [4] in a line: Inhibitory activity against site 2 of sodium channel by radioligand […] assay.
The target of data set [5] is T1, Voltage-gated L-type calcium channel. Put plainly: Inhibition of diltiazem sensitive L type calcium channel by radioligand […] assay. The data set is classed as protein assay.
A short description of data set [6]: Plasma half life in ferret at 5 mg/kg, po. The data set is classed as ADME, organism-based, Mustela putorius furo. Set-up: dose 5 mg/kg, route oral.
For data set [7], the system named is Mustela putorius furo. The data set is described as follows: Activity against morphine-induced emesis in ferret at 1 mg/kg. Further details: dose 1 mg/kg. The data set is classed as functional, organism-based.
Data set [8] addresses Sodium-dependent serotonin transporter (Homo sapiens, UniProt P31645). The data set is described as follows: Inhibition of serotonin reuptake at human recombinant serotonin transporter.
The subject of data set [9] is Mustela putorius furo. The data set is described as follows: Activity against morphine-induced emesis in ferret at 50 mg/kg. The format is functional, organism-based. Set-up: dose 50 mg/kg.
A short description of data set [10]: Cmax in ferret at 5 mg/kg, po. The format is ADME, organism-based, Mustela putorius furo. Further details: dose 5 mg/kg, route oral. The following applies: in vivo.

Chain of Sodium-dependent serotonin transporter (P31645 whole entry): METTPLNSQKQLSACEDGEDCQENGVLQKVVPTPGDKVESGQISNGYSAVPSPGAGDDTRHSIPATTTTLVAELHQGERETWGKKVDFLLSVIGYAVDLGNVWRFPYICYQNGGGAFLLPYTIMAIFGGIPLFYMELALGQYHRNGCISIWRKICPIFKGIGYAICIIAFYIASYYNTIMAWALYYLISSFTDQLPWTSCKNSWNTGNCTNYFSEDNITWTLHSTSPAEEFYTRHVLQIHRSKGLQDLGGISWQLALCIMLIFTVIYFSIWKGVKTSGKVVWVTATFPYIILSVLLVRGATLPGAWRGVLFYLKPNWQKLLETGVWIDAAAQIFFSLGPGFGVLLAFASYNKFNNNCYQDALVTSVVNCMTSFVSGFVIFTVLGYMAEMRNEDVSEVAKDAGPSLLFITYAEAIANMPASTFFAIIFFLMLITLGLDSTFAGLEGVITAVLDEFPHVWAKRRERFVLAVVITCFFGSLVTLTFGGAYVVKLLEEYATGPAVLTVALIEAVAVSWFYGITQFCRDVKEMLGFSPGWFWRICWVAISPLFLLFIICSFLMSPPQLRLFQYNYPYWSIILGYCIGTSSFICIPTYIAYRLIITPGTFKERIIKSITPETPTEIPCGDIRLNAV
Chain of Sodium-dependent noradrenaline transporter (P23975 whole entry): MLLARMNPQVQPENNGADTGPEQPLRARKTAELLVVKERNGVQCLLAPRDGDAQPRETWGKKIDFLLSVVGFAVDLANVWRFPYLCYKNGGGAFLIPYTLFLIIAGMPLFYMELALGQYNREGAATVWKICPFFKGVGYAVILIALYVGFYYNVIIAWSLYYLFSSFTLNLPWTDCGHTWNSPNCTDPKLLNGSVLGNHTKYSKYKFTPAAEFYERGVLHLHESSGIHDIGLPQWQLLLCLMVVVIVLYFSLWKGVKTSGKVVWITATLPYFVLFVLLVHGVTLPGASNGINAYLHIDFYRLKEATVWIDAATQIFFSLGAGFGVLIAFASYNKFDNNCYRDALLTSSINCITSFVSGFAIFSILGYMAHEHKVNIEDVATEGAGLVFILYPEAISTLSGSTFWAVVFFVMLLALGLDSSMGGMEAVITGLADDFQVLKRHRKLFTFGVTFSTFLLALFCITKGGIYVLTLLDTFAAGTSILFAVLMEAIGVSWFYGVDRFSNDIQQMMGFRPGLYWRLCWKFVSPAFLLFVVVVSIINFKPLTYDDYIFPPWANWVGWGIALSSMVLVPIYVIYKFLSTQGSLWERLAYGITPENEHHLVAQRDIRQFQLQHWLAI

Broadly, the inhibition in vivo is how much of the control response was suppressed. A high value points to strong suppression. As usually defined, the IC50 is the concentration that gives 50% inhibition. As usually defined, the half-life is how long it takes for the measured level to halve. As a reminder, the Cmax is the peak of the concentration-time curve. In data set [1], `COc1ccc([C@H](CN(C)C)[Si]2(O)CCCCC2)cc1` returned an inhibition in vivo at 5 mg/kg of 93%. Besides, the IC50 came out at 0.2 µM in [2]; 8.6 µM in data set [3]; 5.1 µM in [4]; 2.7 µM in [5]; 4.2 µM in data set [8]. In data set [6], this compound had a half-life of 1.1 h. In addition, in data set [7], the result was inactive. In [9], the result was Active. This compound showed a Cmax in [10] of 225 ng/mL.
